Laboratory results: ChEMBL document CHEMBL5241068, “Biguanides: Species with versatile therapeutic applications” (Eur J Med Chem, 2021)

Columns and labels:
[1] = Inhibition of Brugia malayi DHFR
[2] = Inhibition of quorum sensing system in Chromobacterium violaceum CV12472
[3] = Elimination half life in mouse at 1 mg/kg, po; assay type: ADME, organism-based; details: in vivo, read-out: beta t1/2 (converted)
[4] = Cmax in mouse at 1 mg/kg, po; assay type: ADME, organism-based; design: dose 1 mg/kg, route po; details: in vivo
Escherichia coli = assay: Bactericidal activity against Escherichia coli assessed as time required to kill the bacteria at 95 uM; assay type: functional
FaDu = assay: Anticancer activity against human FaDu cells; assay type: functional, cell-based
C6661 = assay: Anticancer activity against human C6661 cells; assay type: functional, cell-based
[5] = Lipophilicity, logP of the compound; assay type: physicochemical; details: octanol/water
[6] = Inhibition of Toxoplasma gondii DHFR
[7] = Selectivity index, ratio of IC50 for rat liver DHFR to IC50 for Toxoplasma gondii DHFR
SK-OV-3 = assay: Antiproliferative activity against human SK-OV-3 cells incubated for 72 hrs by MTT assay; assay type: functional, cell-based; details: SK-OV-3, 72 h
T47D = assay: Antiproliferative activity against human T47D cells in presence of phenformin; assay type: functional, cell-based
IGROV-1 = assay: Antiproliferative activity against human IGROV-1 cells incubated for 72 hrs by MTT assay; assay type: functional, cell-based; details: IGROV-1, 72 h
MDA-MB-231 = assay: Antiproliferative activity against human MDA-MB-231 cells in presence of phenformin; assay type: functional, cell-based
[8] = molecular target: Replicase polyprotein 1ab (Severe acute respiratory syndrome coronavirus 2) (UniProt P0DTD1); assay: Binding affinity to SARS CoV-2 3CL protease assessed as gibbs free energy change
A2780 = assay: Antiproliferative activity against human A2780 cells; assay type: functional, cell-based
[9] = Solubility of compound at pH 8; assay type: physicochemical; details: buffer

Question: Which IC50 [1] does the source give for `COc1cc(Cc2cnc(N)nc2N)cc(OC)c1OC` [TRIMETHOPRIM] here?
Answer: Its IC50 is 12.9 µM.

Question: With `N=C(N=C(N)N)N(Cc1ccccc1)c1ccccc1` as the compound, how does the IC50 [2] read?
Answer: Its IC50 is 179 µM.

Question: For `CN(C)C(=N)N=C(N)N` [METFORMIN], which half-life [3] is on record?
Answer: Its half-life is 6 h.

Question: And the Cmax [4]?
Answer: The Cmax was 2000 ng/mL.

Question: With `CCc1nc(N)nc(N)c1-c1ccc(Cl)cc1` [PYRIMETHAMINE] as the compound, how does the IC50 [1] read?
Answer: Its IC50 is 20.1 µM.

Question: With `C=CC(=O)OCCc1ccc(/N=C(N)/N=C(\N)Nc2ccc(Cl)cc2)cc1.Cl` as the compound, how does the Time (Escherichia coli) read?
Answer: The Time was 30 min.

Question: With `NC(N)=N/C(N)=N/c1ccc(OCc2cccc(Cl)c2)cc1` as the compound, how does the IC50 [1] read?
Answer: The IC50 was 16.7 µM.

Question: With `CCCC[C@@H](CC)CNC(=N)NC(=N)NCCCCCCNC(=N)NC(=N)NC[C@H](CC)CCCC` as the compound, how does the EC50 (FaDu) read?
Answer: Its EC50 is 1.8 µM.

Question: And the EC50 (C6661)?
Answer: The EC50 was 2.6 µM.

Question: With `N=C(NCCCCCCCCCCCCNC(=N)Nc1ncc(Cl)cn1)Nc1ncc(Cl)cn1` as the compound, how does the logP [5] read?
Answer: The logP was 5.5.

Question: For `NC(N)=N/C(N)=N/c1ccc(OCc2ccc(Cl)cc2Cl)cc1`, which IC50 [1] is on record?
Answer: The IC50 was 6.31 µM.

Question: For `CC1(C)N=C(N)N=C(N)N1c1ccc(OCc2ccc(-c3ccccc3)cc2)cc1`, which IC50 [6] is on record?
Answer: Its IC50 is 0.012 µM.

Question: What about the Ratio IC50 [7] of the same compound?
Answer: Its Ratio IC50 is 2.15.

Question: With `Clc1ccc(Nc2ccnc(Nc3ccc(Cl)cc3)n2)cc1` as the compound, how does the logP [5] read?
Answer: The logP was 5.5.

Question: What does the source list for `CN(C)C(=N)NC(=N)N` [METFORMIN]?
Answer: IC50 (SK-OV-3): 150 µM; IC50 (T47D): 9400 µM; IC50 (IGROV-1): 850 µM; IC50 (MDA-MB-231): 4010 µM; deltaG [8]: -6.72 kcal/mol

Question: With `NC(N)=N/C(N)=N/c1ccc(OCc2ccc(-c3ccccc3)cc2)cc1` as the compound, how does the IC50 [1] read?
Answer: Its IC50 is < 5.83 µM.

Question: For `N=C(NCCCCCCCCCCNC(=N)Nc1ncc(Cl)cn1)Nc1ncc(Cl)cn1`, which logP [5] is on record?
Answer: The logP was 5.5.

Question: With `CC1(C)N=C(N)N=C(N)N1c1ccc(OCc2ccc(Cl)cc2Cl)cc1` as the compound, how does the IC50 [1] read?
Answer: The IC50 was 5.73 µM.

Question: For `NC(N)=N/C(N)=N/CCOc1ccn(-c2ccc(Cl)cc2)n1`, which IC50 (A2780) is on record?
Answer: The IC50 was 6.9 µM.

Question: For `Cl.N=C(N)NC(=N)N1CCOCC1`, which deltaG [8] is on record?
Answer: The deltaG was -2.11 kcal/mol.

Question: What about the solubility [9] of the same compound?
Answer: Its solubility is 360 mg/mL.

Question: For `N=C(N=C(N)N)N(c1ccccc1)c1ccc(N)cc1`, which IC50 [2] is on record?
Answer: The IC50 was 120 µM.

Question: With `NC(N)=N/C(N)=N/Cc1ccco1` as the compound, how does the IC50 (SK-OV-3) read?
Answer: The IC50 was 380 µM.

Question: What about the IC50 (IGROV-1) of the same compound?
Answer: Its IC50 is 150 µM.
